Measured values taken from patent US20220242870A1, “HETEROCYCLE-FUSED PYRIMIDINE DERIVATIVE AND USE THEREOF” (VORONOI Inc., priority 2019, published 2022).

Experiments:
Assay in all cases: scanMAX kinase assay panel
Type in all cases: binding
ALK(C1156Y) = molecular target: T1, ALK(C1156Y) (Homo sapiens, UniProt Q9UM73, C1156Y); details: read-out: control percentage (% control)
T1 construct: purchased DiscoverX (scanMAX panel, contract assay)
Protocol: (§1) The activities of the compounds according to the present invention to more diverse enzymes were evaluated. Specifically, it was decided that the enzyme selectivity of Example 74 selected from the compounds of Examples 1 to 129 was measured at the request of DiscoverX, and the experiment was conducted using a scanMAX™ kinase assay panel. At this time, as a drug to treat the enzyme, a solution prepared by dissolving in DMSO at a concentration of 1 μM was used, and the control percentage (% control) was determined by the method of Equation 1 below, and the results were shown in Table 2 below.
(§2) In Equation above, the positive control and negative control mean compounds showing control percentages of 0% and 100% as DMSO, respectively.

BLK = molecular target: T2, BLK (Homo sapiens, UniProt P51451); details: read-out: control percentage (% control)
T2 construct: purchased DiscoverX (scanMAX panel, contract assay)
T2 sequence (P51451 whole entry): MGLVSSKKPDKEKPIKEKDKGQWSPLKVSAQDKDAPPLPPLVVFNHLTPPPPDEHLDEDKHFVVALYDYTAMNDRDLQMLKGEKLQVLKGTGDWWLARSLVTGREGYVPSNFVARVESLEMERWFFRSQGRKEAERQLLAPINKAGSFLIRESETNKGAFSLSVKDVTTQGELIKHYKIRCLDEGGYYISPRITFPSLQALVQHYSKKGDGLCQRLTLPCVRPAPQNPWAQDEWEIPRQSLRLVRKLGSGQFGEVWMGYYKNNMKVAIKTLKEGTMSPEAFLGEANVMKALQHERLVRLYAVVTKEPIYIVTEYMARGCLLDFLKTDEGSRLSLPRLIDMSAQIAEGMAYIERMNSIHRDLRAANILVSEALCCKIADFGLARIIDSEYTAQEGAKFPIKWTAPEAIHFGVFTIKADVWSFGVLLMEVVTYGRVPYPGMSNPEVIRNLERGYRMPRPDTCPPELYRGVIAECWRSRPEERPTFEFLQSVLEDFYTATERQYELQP
Protocol: as §1, §2

JNK3 = molecular target: T3, JNK3 (Homo sapiens, UniProt P53779); details: read-out: control percentage (% control)
T3 construct: purchased DiscoverX scanMAX kinase assay panel
Protocol: as §1, §2

FLT3(D835V) = molecular target: T4, FLT3(D835V) (Homo sapiens, UniProt P36888, D835V); details: read-out: control percentage (% control)
T4 construct: purchased DiscoverX scanMAX kinase assay panel
Protocol: as §1, §2

PIP5K1A = molecular target: T5, PIP5K1A (Homo sapiens, UniProt Q99755); details: read-out: control percentage (% control)
T5 construct: purchased DiscoverX scanMAX kinase assay panel
T5 sequence (Q99755 whole entry): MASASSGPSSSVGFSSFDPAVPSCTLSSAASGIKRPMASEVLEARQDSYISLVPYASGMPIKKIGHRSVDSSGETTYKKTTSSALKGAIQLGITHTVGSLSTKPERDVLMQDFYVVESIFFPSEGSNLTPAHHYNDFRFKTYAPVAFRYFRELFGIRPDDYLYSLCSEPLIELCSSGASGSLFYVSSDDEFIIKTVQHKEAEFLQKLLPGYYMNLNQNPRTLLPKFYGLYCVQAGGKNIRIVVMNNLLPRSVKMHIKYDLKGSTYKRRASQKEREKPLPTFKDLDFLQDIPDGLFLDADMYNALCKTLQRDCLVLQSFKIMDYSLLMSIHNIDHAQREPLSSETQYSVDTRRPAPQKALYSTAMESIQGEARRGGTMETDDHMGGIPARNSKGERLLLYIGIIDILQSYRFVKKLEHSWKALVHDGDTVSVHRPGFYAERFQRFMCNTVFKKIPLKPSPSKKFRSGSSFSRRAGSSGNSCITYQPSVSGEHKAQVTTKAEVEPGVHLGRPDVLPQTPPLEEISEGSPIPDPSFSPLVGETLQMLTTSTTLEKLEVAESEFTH
Protocol: as §1, §2

TNIK = molecular target: T6, TNIK (Homo sapiens, UniProt Q9UKE5); details: read-out: control percentage (% control)
T6 construct: purchased DiscoverX
Protocol: as §1, §2

MAP4K5 = molecular target: T7, MAP4K5 (Homo sapiens, UniProt Q9Y4K4); details: read-out: control percentage (% control)
T7 construct: purchased DiscoverX scanMAX kinase assay panel
Protocol: as §1, §2

CDK4-cyclinD3 = molecular target: T8, CDK4-cyclinD3 (Homo sapiens, UniProt P11802); details: read-out: control percentage (% control)
T8 construct: purchased DiscoverX (scanMAX panel, contract assay)
Protocol: as §1, §2

DYRK1B = molecular target: T9, DYRK1B (Homo sapiens, UniProt Q9Y463); details: read-out: control percentage (% control)
T9 construct: purchased DiscoverX scanMAX kinase assay panel
Protocol: as §1, §2

DLK = molecular target: T10, DLK (Homo sapiens, UniProt Q12852); details: read-out: control percentage (% control)
T10 construct: purchased DiscoverX scanMAX kinase assay panel
Protocol: as §1, §2

PYK2 = molecular target: T11, PYK2 (Homo sapiens, UniProt Q14289); details: read-out: control percentage (% control)
T11 construct: purchased DiscoverX scanMAX kinase assay panel
Protocol: as §1, §2

FLT3(ITD) = details: 1 μM
Protocol: as §1, §2

EGFR(E746-A750del) = molecular target: T12, EGFR(E746-A750del) (Homo sapiens, UniProt P00533, DEL746-750); details: read-out: control percentage (% control)
T12 construct: purchased DiscoverX scanMAX kinase assay panel
Protocol: as §1, §2

HPK1 = molecular target: T13, HPK1 (Homo sapiens, UniProt Q92918); details: read-out: control percentage (% control)
T13 construct: purchased DiscoverX scanMAX kinase assay panel
T13 sequence (Q92918 whole entry): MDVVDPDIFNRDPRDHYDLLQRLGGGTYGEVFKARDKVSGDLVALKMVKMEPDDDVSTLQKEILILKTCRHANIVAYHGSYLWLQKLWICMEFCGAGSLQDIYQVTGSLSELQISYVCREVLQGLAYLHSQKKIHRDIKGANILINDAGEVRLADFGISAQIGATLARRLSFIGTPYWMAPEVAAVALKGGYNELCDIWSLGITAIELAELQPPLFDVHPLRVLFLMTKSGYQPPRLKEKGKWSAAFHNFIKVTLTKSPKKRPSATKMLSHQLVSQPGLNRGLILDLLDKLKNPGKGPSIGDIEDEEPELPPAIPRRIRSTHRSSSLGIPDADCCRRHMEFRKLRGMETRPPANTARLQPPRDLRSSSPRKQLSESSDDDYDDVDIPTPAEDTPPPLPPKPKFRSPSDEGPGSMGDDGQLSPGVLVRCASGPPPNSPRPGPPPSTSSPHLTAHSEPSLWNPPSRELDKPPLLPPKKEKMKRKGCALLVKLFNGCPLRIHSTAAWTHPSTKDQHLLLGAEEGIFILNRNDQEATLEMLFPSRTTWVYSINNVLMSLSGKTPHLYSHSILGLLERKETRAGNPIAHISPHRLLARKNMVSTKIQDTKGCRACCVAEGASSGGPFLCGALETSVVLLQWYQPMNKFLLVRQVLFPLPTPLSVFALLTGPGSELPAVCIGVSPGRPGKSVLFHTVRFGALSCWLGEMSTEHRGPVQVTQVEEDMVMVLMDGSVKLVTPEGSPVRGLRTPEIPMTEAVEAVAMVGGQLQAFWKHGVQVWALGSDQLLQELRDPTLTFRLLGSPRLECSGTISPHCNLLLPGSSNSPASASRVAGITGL
Protocol: as §1, §2

RET(M918T) = molecular target: T14, RET(M918T) (Homo sapiens, UniProt P07949, M918T); details: read-out: control percentage (% control)
T14 construct: purchased DiscoverX scanMAX kinase assay panel
Protocol: as §1, §2

TAK1 = molecular target: T15, TAK1 (Homo sapiens, UniProt O43318); details: read-out: control percentage (% control)
T15 construct: purchased DiscoverX
Protocol: as §1, §2

AXL = molecular target: T16, AXL (Homo sapiens, UniProt P30530); details: read-out: control percentage (% control)
T16 construct: purchased DiscoverX (scanMAX panel, contract assay)
Protocol: as §1, §2

LRRK2 = molecular target: T17, LRRK2 (Homo sapiens, UniProt Q5S007); details: read-out: control percentage (% control)
T17 construct: purchased DiscoverX scanMAX kinase assay panel
T17 sequence (Q5S007 whole entry): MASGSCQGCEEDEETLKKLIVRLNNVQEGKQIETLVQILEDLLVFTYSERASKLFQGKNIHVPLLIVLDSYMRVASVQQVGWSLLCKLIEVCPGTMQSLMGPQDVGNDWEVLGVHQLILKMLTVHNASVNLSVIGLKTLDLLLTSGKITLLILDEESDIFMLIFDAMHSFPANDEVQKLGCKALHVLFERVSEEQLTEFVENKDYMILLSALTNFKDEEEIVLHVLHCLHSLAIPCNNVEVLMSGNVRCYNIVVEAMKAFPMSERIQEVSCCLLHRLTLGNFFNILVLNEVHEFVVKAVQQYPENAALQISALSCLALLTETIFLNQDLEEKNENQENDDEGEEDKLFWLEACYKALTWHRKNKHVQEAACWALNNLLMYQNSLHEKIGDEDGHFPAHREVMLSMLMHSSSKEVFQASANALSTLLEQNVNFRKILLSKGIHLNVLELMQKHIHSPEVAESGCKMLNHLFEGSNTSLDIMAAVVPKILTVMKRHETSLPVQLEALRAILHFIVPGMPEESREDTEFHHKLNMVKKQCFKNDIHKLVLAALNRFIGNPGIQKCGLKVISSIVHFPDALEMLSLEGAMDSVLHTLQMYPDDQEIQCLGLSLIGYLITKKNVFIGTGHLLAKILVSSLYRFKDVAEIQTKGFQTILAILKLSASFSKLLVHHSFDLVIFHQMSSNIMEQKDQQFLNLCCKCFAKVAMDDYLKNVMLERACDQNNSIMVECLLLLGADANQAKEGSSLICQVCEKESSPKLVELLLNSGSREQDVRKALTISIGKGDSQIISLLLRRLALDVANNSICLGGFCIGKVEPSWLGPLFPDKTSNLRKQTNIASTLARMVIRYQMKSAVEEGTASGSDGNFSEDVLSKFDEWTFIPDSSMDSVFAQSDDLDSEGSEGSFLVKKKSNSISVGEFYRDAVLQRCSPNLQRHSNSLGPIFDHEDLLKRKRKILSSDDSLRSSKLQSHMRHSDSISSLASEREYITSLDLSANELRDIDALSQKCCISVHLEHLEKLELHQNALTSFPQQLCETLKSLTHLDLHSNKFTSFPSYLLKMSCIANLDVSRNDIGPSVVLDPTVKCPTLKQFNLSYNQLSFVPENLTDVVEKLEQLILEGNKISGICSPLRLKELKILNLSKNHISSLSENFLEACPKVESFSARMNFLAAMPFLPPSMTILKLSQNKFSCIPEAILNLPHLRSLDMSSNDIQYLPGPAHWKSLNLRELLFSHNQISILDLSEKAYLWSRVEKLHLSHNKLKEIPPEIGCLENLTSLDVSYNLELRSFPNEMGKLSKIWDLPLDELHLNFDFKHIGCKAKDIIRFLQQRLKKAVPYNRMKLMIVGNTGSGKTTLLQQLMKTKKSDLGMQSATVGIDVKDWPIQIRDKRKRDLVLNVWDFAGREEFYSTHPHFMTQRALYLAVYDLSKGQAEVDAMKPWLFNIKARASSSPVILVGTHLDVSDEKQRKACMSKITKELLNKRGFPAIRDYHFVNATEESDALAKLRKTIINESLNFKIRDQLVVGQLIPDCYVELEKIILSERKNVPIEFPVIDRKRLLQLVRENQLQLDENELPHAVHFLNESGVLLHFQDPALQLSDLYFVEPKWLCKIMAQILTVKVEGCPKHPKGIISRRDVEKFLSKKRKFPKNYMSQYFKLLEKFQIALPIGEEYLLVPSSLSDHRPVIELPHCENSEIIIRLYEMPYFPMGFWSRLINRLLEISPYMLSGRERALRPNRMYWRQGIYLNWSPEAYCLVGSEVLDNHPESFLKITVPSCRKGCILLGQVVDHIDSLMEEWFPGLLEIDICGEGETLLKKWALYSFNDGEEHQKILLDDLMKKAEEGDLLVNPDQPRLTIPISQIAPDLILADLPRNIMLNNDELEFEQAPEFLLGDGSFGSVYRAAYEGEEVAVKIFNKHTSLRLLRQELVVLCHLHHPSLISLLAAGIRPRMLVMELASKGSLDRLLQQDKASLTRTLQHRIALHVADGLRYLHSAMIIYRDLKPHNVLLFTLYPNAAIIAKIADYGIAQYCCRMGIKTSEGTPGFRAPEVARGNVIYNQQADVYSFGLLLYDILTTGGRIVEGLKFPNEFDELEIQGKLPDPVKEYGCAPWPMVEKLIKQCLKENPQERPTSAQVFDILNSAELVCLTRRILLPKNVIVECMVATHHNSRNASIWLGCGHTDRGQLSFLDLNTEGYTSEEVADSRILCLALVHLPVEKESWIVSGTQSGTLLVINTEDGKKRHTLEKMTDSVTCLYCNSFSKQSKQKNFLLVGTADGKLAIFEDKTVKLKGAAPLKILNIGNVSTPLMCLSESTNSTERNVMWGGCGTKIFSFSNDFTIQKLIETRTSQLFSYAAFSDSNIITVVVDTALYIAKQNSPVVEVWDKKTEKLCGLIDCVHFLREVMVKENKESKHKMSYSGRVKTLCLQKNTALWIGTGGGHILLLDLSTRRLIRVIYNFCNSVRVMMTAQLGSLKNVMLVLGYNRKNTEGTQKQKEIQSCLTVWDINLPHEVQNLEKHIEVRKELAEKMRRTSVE
Protocol: as §1, §2

PAK3 = molecular target: T18, PAK3 (Homo sapiens, UniProt O75914); details: read-out: control percentage (% control)
T18 construct: purchased DiscoverX scanMAX kinase assay panel
T18 sequence (O75914 whole entry): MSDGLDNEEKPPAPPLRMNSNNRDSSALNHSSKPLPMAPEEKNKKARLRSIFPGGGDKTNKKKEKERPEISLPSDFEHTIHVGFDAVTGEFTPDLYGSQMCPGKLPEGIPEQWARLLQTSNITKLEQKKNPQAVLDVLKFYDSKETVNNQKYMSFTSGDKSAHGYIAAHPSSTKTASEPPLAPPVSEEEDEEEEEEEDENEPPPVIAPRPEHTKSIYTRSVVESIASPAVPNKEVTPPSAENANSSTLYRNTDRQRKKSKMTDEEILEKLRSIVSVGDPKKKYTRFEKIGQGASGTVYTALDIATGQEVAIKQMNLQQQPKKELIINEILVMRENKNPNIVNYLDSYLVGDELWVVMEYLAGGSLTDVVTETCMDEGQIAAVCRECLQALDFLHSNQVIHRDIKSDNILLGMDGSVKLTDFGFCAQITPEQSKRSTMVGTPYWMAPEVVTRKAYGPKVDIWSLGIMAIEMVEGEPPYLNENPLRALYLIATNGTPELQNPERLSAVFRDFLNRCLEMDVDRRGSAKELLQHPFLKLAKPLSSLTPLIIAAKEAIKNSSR
Protocol: as §1, §2

JNK2 = molecular target: T19, JNK2 (Homo sapiens, UniProt P45984); details: read-out: control percentage (% control)
T19 construct: purchased DiscoverX scanMAX kinase assay panel
Protocol: as §1, §2

ULK2 = molecular target: T20, ULK2 (Homo sapiens, UniProt Q8IYT8); details: read-out: control percentage (% control)
T20 construct: purchased DiscoverX
Protocol: as §1, §2

CDK4 = molecular target: T21, CDK4 (Homo sapiens, UniProt P11802); details: read-out: control percentage (% control)
T21 construct: purchased DiscoverX (scanMAX panel, contract assay)
Protocol: as §1, §2

[1] = molecular target: T22, RSK4(Kin.Dom.2-C-terminal) (Homo sapiens, UniProt Q9UK32); details: read-out: control percentage (% control)
T22 construct: RSK4(Kin.Dom.2-C-terminal); purchased DiscoverX scanMAX kinase assay panel
Protocol: as §1, §2

TAOK3 = molecular target: T23, TAOK3 (Homo sapiens, UniProt Q9H2K8); details: read-out: control percentage (% control)
T23 construct: purchased DiscoverX
Protocol: as §1, §2

CDKL2 = molecular target: T24, CDKL2 (Homo sapiens, UniProt Q92772); details: read-out: control percentage (% control)
T24 construct: purchased DiscoverX (scanMAX panel, contract assay)
Protocol: as §1, §2

ALK = molecular target: T25, ALK (Homo sapiens, UniProt Q9UM73); details: read-out: control percentage (% control)
T25 construct: purchased DiscoverX (scanMAX panel, contract assay)
Protocol: as §1, §2

PRP4 = molecular target: T26, PRP4 (Homo sapiens, UniProt Q13523); details: read-out: control percentage (% control)
T26 construct: purchased DiscoverX scanMAX kinase assay panel
Protocol: as §1, §2

[2] = molecular target: T27, ABL1(H396P)-nonphosphorylated (Homo sapiens, UniProt P00519, H396P); details: read-out: control percentage (% control)
T27 construct: purchased DiscoverX (scanMAX panel, contract assay)
Protocol: as §1, §2

MEK2 = molecular target: T28, MEK2 (Homo sapiens, UniProt P36507); details: read-out: control percentage (% control)
T28 construct: purchased DiscoverX scanMAX kinase assay panel
Protocol: as §1, §2

SNARK = molecular target: T29, SNARK (Homo sapiens, UniProt Q9H093); details: read-out: control percentage (% control)
T29 construct: purchased DiscoverX
Protocol: as §1, §2

LOK = molecular target: T30, LOK (Homo sapiens, UniProt O94804); details: read-out: control percentage (% control)
T30 construct: purchased DiscoverX scanMAX kinase assay panel
Protocol: as §1, §2

RET(V804M) = molecular target: T31, RET(V804M) (Homo sapiens, UniProt P07949, V804M); details: read-out: control percentage (% control)
T31 construct: purchased DiscoverX scanMAX kinase assay panel
Protocol: as §1, §2

ROCK2 = molecular target: T32, ROCK2 (Homo sapiens, UniProt O75116); details: read-out: control percentage (% control)
T32 construct: purchased DiscoverX scanMAX kinase assay panel
Protocol: as §1, §2

MLK1 = molecular target: T33, MLK1 (Homo sapiens, UniProt P80192); details: read-out: control percentage (% control)
T33 construct: purchased DiscoverX scanMAX kinase assay panel
Protocol: as §1, §2

LCK = molecular target: T34, LCK (Homo sapiens, UniProt P06239); details: read-out: control percentage (% control)
T34 construct: purchased DiscoverX scanMAX kinase assay panel
Protocol: as §1, §2

ITK = molecular target: T35, ITK (Homo sapiens, UniProt Q08881); details: read-out: control percentage (% control)
T35 construct: purchased DiscoverX scanMAX kinase assay panel
Protocol: as §1, §2

Q: Which results are given for CN1CCN(c2ccc(Nc3nc(N4OCC[C@H]4c4ccccc4)c4cc[nH]c4n3)cc2)CC1 [Example 74, (S)-N-(4-(4-methylpiperazin-1-yl)phenyl)-4-(3-phenylisoxazolidin-2-yl)-7H-pyrrolo[2,3-d]pyrimidin-2-amine]?
A: remaining binding at 1 µM (ALK(C1156Y)): 15%; remaining binding at 1 µM (BLK): 19%; remaining binding at 1 µM (JNK3): 4.5%; remaining binding at 1 µM (FLT3(D835V)): 1.7%; remaining binding at 1 µM (PIP5K1A): 1.2%; remaining binding at 1 µM (TNIK): 27%; remaining binding at 1 µM (MAP4K5): 21%; remaining binding at 1 µM (CDK4-cyclinD3): 3%; remaining binding at 1 µM (DYRK1B): 11%; remaining binding at 1 µM (DLK): 9.2%; remaining binding at 1 µM (PYK2): 27%; control percentage (% control) (FLT3(ITD)): 0.45%; remaining binding at 1 µM (EGFR(E746-A750del)): 0%; remaining binding at 1 µM (HPK1): 0.85%; remaining binding at 1 µM (RET(M918T)): 20%; remaining binding at 1 µM (TAK1): 16%; remaining binding at 1 µM (AXL): 3.2%; remaining binding at 1 µM (LRRK2): 28%; remaining binding at 1 µM (PAK3): 23%; remaining binding at 1 µM (JNK2): 29%; remaining binding at 1 µM (ULK2): 2.5%; remaining binding at 1 µM (CDK4): 10%; remaining binding at 1 µM [1]: 31%; remaining binding at 1 µM (TAOK3): 22%; remaining binding at 1 µM (CDKL2): 8.2%; remaining binding at 1 µM (ALK): 31%; remaining binding at 1 µM (PRP4): 20%; remaining binding at 1 µM [2]: 18%; remaining binding at 1 µM (MEK2): 17%; remaining binding at 1 µM (SNARK): 3.7%; remaining binding at 1 µM (LOK): 8.7%; remaining binding at 1 µM (RET(V804M)): 3.9%; remaining binding at 1 µM (ROCK2): 8%; remaining binding at 1 µM (MLK1): 24%; remaining binding at 1 µM (LCK): 12%; remaining binding at 1 µM (ITK): 5.1%
